According to patent publication US20070161513A1, “3-[1-halo-1-arylmethanesulfonyl]- and 3-[1-halo-1-heteroarylmethanesulfonyl]- isoxazoline derivatives, processes for preparing them, and use as herbicides and plant growth regulators” (Bayer CropScience GmbH, priority 2005, published 2007):

What was measured:
[1] = system: weed plants such as Sinapis alba, Echinochloa crus-galli, Cyperus iria, Avena spp., Stellaria media, Setaria spp., and Amaranthus retroflexus; test: Post-emergence herbicidal activity (pot test under glass); type: in vivo; conditions: applied post-emergence (one-leaf stage) at a rate of 2 kg or less of active substance per hectare; WP formulation; visual scoring after about 3 weeks vs untreated controls
Description: 2. Post-Emergence Herbicidal Activity Seeds of monocot and dicot weed and crop plants are planted out in sandy loam soil in wood fiber pots, covered with soil, and cultivated under glass under good growth conditions. Two-three weeks after sowing, the trial plants are treated at the one-leaf stage. The test compounds, formulated as wettable powders (WP), are then sprayed onto the green parts of the plants, at a water application rate of 600 I/ha (converted), in various dosages, with the addition of 0.2% of wetting agent. After the trial plants have stood for about 3 weeks under glass under optimum growth conditions, the effect of the products is scored visually in comparison with untreated controls. (herbicidal activity in percent (%): 100% activity=plants have died, 0% activity=like control plants).

[2] = system: weed plants such as Avena spp., Lolium multiflorum, Stellaria media, Setaria spp., Sinapis alba and Amaranthus retroflexus; test: Pre-emergence herbicidal activity (pot test under glass); type: in vivo; conditions: applied pre-emergence at a rate of 2 kg or less of active substance per hectare; WP formulation; visual scoring after 3 weeks vs untreated controls
Source text: 1. Pre-Emergence Herbicidal Activity Seeds of monocot and dicot weed and crop plants are planted out in sandy loam soil in wood fiber pots and covered with soil. The test compounds, formulated as wettable powders (WP), are then applied to the surface of the soil cover, in the form of an aqueous suspension, at a water application rate of 600 I/ha (converted), in various dosages, with the addition of 0.2% of wetting agent. After the treatment, the pots are set up under glass and held under good growth conditions for the test plants. Visual scoring of the emergence damage to the trial plants is made after a trial period of 3 weeks in comparison with untreated controls (herbicidal activity in percent (%): 100% activity=plants have died, 0% activity=like control plants).

SMILES | herbicidal activity against weed plants, post-emergence [1] | herbicidal activity against weed plants, pre-emergence [2]
CC1(C)CC(S(=O)(=O)C(Cl)c2ccccc2)=NO1 (stereo not drawn) [Compound I-1.1, 3-{[Chloro(phenyl)methyl]sulfonyl}-5,5-dimethyl-4,5-dihydroisoxazole] | very good herbicidal activity | very good herbicidal activity
CC1(C)CC([S+]([O-])C(Cl)c2ccccc2)=NO1 (stereo not drawn) [III-1.1] | very good herbicidal activity | very good herbicidal activity
CC1(C)CC([S+]([O-])C(Cl)c2c(F)cccc2Cl)=NO1 (stereo not drawn) [III-5.1, 3-{[Chloro(2-chloro-6-fluorophenyl)methyl]sulfinyl}-5,5-dimethyl-4,5-dihydroisoxazole] | very good herbicidal activity | very good herbicidal activity
